Paper PMC4919066 (PLoS Pathogens, 2016)

What was measured:
HCMV [1] = assay: Generation of drug resistant virus; type: cell-based, Human Cytomegalovirus; details: 5 passages, UL97 sequencing
Experimental: Screening of drug resistant virus was performed as reported. Two million cells were plated on a 6-well plate and infected with HCMV (MOI 0.05). […] The cells were maintained in DMEM with 4% FBS until plaques were observed. The supernatants from these plates were used to infect fresh HFFs in a 6-well plate and each time drug concentration was increased by two fold. […] DNA extracted from supernatants collected at the last stage was used for UL97 sequencing.

HCMV Towne = assay: HCMV plaque reduction assay in HFFs; type: cell-based, Human Cytomegalovirus; details: GCV 5 μM, 0.5 and 2 million cells/plate
Experimental: (§1) Human Foreskin Fibroblasts (HFFs) passage 12–16 (ATCC, CRL-2088) and mouse embryonic fibroblasts (MEFs) passage 9–14 (ATCC, CRL-1658) were grown in Dulbecco's Modified Eagle Medium (DMEM) containing 10% fetal bovine serum (FBS) (Gibco, Carlsbad, CA) in a 5% CO2 incubator at 37°C. Infection with HCMV or HSV was performed in HFFs, and infection with mouse CMV was performed in MEFs. For HCMV, cells were seeded in either a 96-well plate or 100 mm culture plates (Corning Costar, Sigma Aldrich) at 0.5 or 2 million cells /plate. Following 90 minute adsorption, media was removed and cells were washed with PBS. Media containing 4% FBS and compounds were added to each well. Infected treated HFFs were collected at 72 hpi and lysates were assayed for luciferase activity using a luciferase assay kit (Promega, Madison, WI) on GloMax-Multi+ Detection System (Promega). In second cycle assays, supernatants were collected from all conditions of the first cycle at 96 hpi and used for infection of fresh HFFs in 96-well plates. Luciferase activity was measured 72 h following second cycle infection. For HSV1-KOS/Dlux/oriS, a luciferase assay was performed at 24 hpi. Plaque assays were performed with clinical isolates of HSV2 and HCMV Towne (ATCC VR-977). HFFs were seeded at 3 million cells/plate in 12-well plates and infected 24 h later with HSV2 at 200 PFU/well. For HCMV or MCMV, HFFs or MEFs were seeded at 0.5 or 2 million cells /plate in a 12-well plate and infected 24 hours later at 100 PFU/well. Following virus adsorption (60 min and 90 min for HSV and HCMV, respectively), virus was aspirated, and DMEM containing 4% fetal bovine serum (FBS) with (for HSV) or without (for HCMV/MCMV) 0.5% carboxymethyl-cellulose, were added with the compounds at indicated concentrations into triplicate wells. After incubation at 37°C for 10 days (for HCMV), 3 days for MCMV or 2 days (for HSV), the overlay was removed and plaques were counted after crystal violet staining.

HCMV [2] = assay: Virus entry, pp65 immunofluorescence assay; type: cell-based, Human Cytomegalovirus; details: emetine 75 nM, GCV 10 μM, CpG 2006 10 μM, added 24 h prior to infection
MCMV = MCMV plaque reduction assay in MEFs; type: cell-based, mouse CMV; details: GCV 5 μM, 0.5 and 2 million cells/plate
Experimental: The pp28-luciferase HCMV Towne and a GCV-resistant pp28-luciferase were used. The recombinant viruses express luciferase under the control of the late CMV gene promoter, pp28. Luciferase expression is activated 48–72 hours post infection (hpi). The recombinant viruses provide a highly-sensitive reporter system which correlates with plaque reduction assay. The Towne HCMV strain (ATCC VR-977) was used for plaque reduction, quantitative reverse transcriptase PCR (qRT-PCR), and immunoprecipitation assays. Human herpes virus strains were: luciferase HSV1- KOS/Dlux/oriS [52] and clinical isolates of HSV2. The clinical isolates were provided by the clinical microbiology laboratory with no identifiers that can link to a specific subject. Murid Herpesvirus (MCMV: ATCC VR-1399) was used for infection of mouse embryonic fibroblasts (MEFs) and mice.
as §1, with “For HSV1-KOS/Dlux/oriS, a luciferase assay was performed at 24 hpi. Plaque assays were performed with clinical isolates of HSV2 and HCMV Towne (ATCC VR-977). HFFs were seeded at 3 million cells/plate in 12-well plates and infected 24 h later with HSV2 at 200 PFU/well. For HCMV or MCMV, HFFs or MEFs were seeded at 0.5 or 2 million cells /plate in a 12-well plate and infected 24 hours later at 100 PFU/well. Following virus adsorption (60 min and 90 min for HSV and HCMV, respectively), virus was aspirated, and DMEM containing 4% fetal bovine serum (FBS) with (for HSV) or without (for HCMV/MCMV) 0.5% carboxymethyl-cellulose, were added with the compounds at indicated concentrations into triplicate wells.” left out

MDM2-IE2 = assay: Co-immunoprecipitation MDM2-IE2 in transfected HEK293 cells; type: cell-based; details: IE1/2 transfection, emetine 75 nM or GCV 5 μM for 4 h
Experimental: HEK-293 cells seeded into 10 cm petri dishes were transfected with HCMV plasmid encoding IE1 and IE2 (pRL45), using Lipofectamine 2000 in serum free medium. After 6 h, 10% FBS containing media was added along with 10 μM of MG132. […] Cells were then harvested to prepare lysates for IP.
Non-infected, infected or emetine-treated HFFs were treated with MG132 (10 μM) for 12h. Cells were harvested after 24 hpi and lysed with IP buffer containing 150 mM NaCl, 50mM Tris pH 7.5, 2 mM EDTA, 0.5% TritonX-100 and 0.5% NP-40-40. 1 mg of lysate was precleared with bead slurry for 30 min. The precleared lysates were incubated with anti-MDM2 (2 μg) antibody overnight. The antibody complexes were isolated using protein A/G beads (Santa Cruz), washed three times with 50% IP buffer. The immunoprecipitate-protein A/G beads were boiled in SDS sample buffer, and the supernatant was analyzed on SDS-PAGE gels after immunoblotting as described previously. 1% of the cell lysate used for IP was loaded on gels as ‘Input’. Confirmatory reverse IPs were performed as described in each experiment. Isotype control antibodies included: rabbit IgG polyclonal, mouse IgG2a kappa and mouse IgG2b kappa monoclonal (Abcam). Mouse monoclonal RPS19 antibody (Abcam) served as an additional negative control for the IPs. Densitometry analysis was performed to determine relative ratio of immunoprecipitated protein to its input level.

Nc1nc(O)c2ncn(COC(CO)CO)c2n1 [GCV, Ganciclovir]
selection of resistant virus with increasing drug concentration (HCMV [1]): selected for a C607Y mutation in UL97 | HCMV inhibition and cell density (HCMV Towne): inhibited HCMV and MCMV irrespective of cell density | inhibition of viral entry (HCMV [2]): neither emetine nor GCV inhibited viral entry | MCMV inhibition and cell density (MCMV): inhibited HCMV and MCMV irrespective of cell density | interaction between MDM2 and IE2 (MDM2-IE2): had no effect on this interaction
